Like-named read-outs stand apart in the source and are kept apart here.
Columns and labels:
[1] = Clinical trial LP0058-1442 in healthy volunteers: PK of modified-release tablet vs immediate-release capsule; format: in vivo, human; conditions: for AUC(0-t): human, plasma, oral, read-out: AUClast, NCA GM (CV %)
Description: The modified-release formulation was studied in a clinical trial (LP0058-1442) and administered in a total of 36 healthy volunteers: 18 in part 1, 9 in part 2, and 9 in part 3. Twenty-seven (27) healthy volunteers received a single administration of 30 mg orismilast, and 9 subjects received multiple administrations over a period of 17 days with an up-titration up to a maximum of 60 mg BID. Part 1 of this study was to evaluate the key PK parameters of the new modified-release formulation compared to the reference capsule formulation with immediate release. Orismilast was rapidly absorbed from both formulations with median tmax values of 3.00 hours post-dose for the immediate-release capsule and 2.52 hours post-dose for the modified-release tablet. The individual tmax ranges were approximately 1 to 6 hours post-dose for the immediate-release capsule and 1 to 4 hours post-dose for the modified-release tablet. […] It can therefore be reasonably assumed that the safety profile resulting from systemic effects can be extrapolated from studies having investigated the immediate-release formulation and in particular, study LP0058-1072, a Phase 2a study including 36 patients with moderate to severe psoriasis vulgaris.
Following administration of modified release tablet as a single oral dose and after multiple doses up to 60 mg, orismilast reached a Cmax around 3 h under fasting state.

[2] = test system: adults with moderate-to-severe plaque-type psoriasis; test: Phase 2b dose-ranging study in psoriasis (Example 3): treatment-emergent adverse events and discontinuations; format: in vivo, human
Excerpt: • Percentage change in Psoriasis […] and Severity Index (PASI) score from Baseline at Week 16. Key Secondary Endpoints • Patients achieving 75% reduction in PASI (PASI75) response at Week 16. • Patients achieving a score of Clear (0) or Almost Clear (1) and an at least 2-point improvement in Investigator Global Assessment (IGA) at Week 16. […] Safety Endpoints: • The occurrence, severity, and seriousness of treatment-emergent adverse events (TEAEs) reported over the 16-week Treatment Period and the 4-week Follow-up Period. • Changes from Baseline in physical examination; vital sign measurements (body temperature, respiration rate, heart rate, and systolic and diastolic blood pressure measurements); and body weight over the 16-week Treatment Period and the 4-week Follow-up Period. • Changes from Baseline in electrocardiogram (ECG) findings over the 16-week Treatment Period and the 4-week Follow-up Period. • Changes from Baseline in safety laboratory values (haematology, serum chemistry, and urinalysis) over the 16-week Treatment Period and the 4-week Follow-up Period. • Hospital Anxiety and Depression Scale at each visit except Week 2. • Columbia-Suicide Severity Rating Scale (C-SSRS) at each visit except Weeks 1 and 2. Exploratory Endpoints: • Change from Baseline in Physician's Global Assessment of Fingernails (PGA-F) at Week 16. • Change in Scalp-Specific Investigator Global Assessment (ss-IGA) from Baseline at Week 16 in the subgroup of patients with Baseline score of at least 2 (mild scalp psoriasis). • Change from Baseline of scalp itch Numeric Rating Scale (NRS) at Week 16 in the subgroup of patients with Baseline score of at least 4 on the 11-point NRS. • Change from Baseline in joint pain NRS at Week 16 in patients with psoriatic arthritis (PsA) and a Baseline joint pain score of at least 4. • Change in cardiovascular risk factors at Week 16. The following parameters will be collected: weight, body mass index, waist and hip circumferences, blood pressure, fasting serum glucose, triglycerides, cholesterol (total and high-density lipoprotein/low-density lipoprotein fractions), and C-reactive protein. • Change from Baseline in skin biomarkers at Week 16 collected via tape stripping and analysed using proteomic methods. • Plasma levels of the drug and its metabolites at scheduled visits. Study Design
At Baseline and each visit from Week 4 onwards, PASI, BSA, IGA, and PSS were assessed. Quality of life was assessed by administration of DLQI at Baseline and at Weeks 16 and 20 visits. Additional efficacy parameters include: an ss-IGA, a Physician Global Assessment of fingernail psoriasis (PGA-F), and patient's joint pain NRS for those with a diagnosis of PsA. These parameters were assessed at Baseline and Weeks 16 and 20. Safety evaluations include adverse events (Aes), laboratory and vital sign assessments, physical examinations, as well as mood change evaluation by patient (Hospital Anxiety and Depression Scale) and suicidal ideation evaluation by Investigator (C-SSRS). A panel of cardiovascular risk factors were assessed at Baseline and Week 16.

CYP3A4 = target: T1, CYP3A4 (Homo sapiens, UniProt P08684); test: CYP3A4 inhibition from clinical studies; format: in vivo
T1 construct: from tissue; host or cells: human subjects in vivo (clinical studies); no organ is named
Excerpt: Patients receiving orismilast concurrently with these medicinal • products should be monitored for related AEs, especially if they have a narrow therapeutic window.

[3] = test system: PDE4B and PDE4D subtype splice variants; conditions: in vitro; cited from earlier work
[4] = test system: TNF-α secretion from human whole blood; conditions: in vitro; cited from earlier work

T1 sequence (P08684 whole entry): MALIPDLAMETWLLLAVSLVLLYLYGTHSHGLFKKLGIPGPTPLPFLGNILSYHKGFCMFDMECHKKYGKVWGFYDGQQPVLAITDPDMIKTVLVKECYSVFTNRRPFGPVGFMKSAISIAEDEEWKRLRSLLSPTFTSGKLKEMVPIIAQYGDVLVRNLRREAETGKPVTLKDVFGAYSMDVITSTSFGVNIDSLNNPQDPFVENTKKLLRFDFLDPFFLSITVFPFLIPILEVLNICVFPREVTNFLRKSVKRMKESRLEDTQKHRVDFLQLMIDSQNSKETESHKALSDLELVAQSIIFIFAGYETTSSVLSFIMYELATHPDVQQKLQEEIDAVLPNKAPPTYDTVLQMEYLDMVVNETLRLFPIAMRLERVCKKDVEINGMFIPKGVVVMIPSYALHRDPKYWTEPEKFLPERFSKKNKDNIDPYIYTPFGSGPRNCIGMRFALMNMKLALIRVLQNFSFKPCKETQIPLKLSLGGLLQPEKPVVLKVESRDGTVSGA

O=C(Cc1c(Cl)c[n+]([O-])cc1Cl)c1ccc(OC(F)F)c2c1OC1(CCS(=O)(=O)CC1)O2 [orismilast, 2-(3,5-dichloro-1-oxidopyridin-1-ium-4-yl)-1-[7-(difluoromethoxy)-1′,1′-dioxospiro[1,3-benzodioxole-2,4′-thiane]-4-yl]ethanone]
AUC(0-t) ([1]; 10 mg, 1442 - Part 3 (D1 = 10 mg), N 9): 112 ng·h/mL | AUC(0-t) ([1]; 30 mg, 1442 - Part 1 (MR, 30 mg), N 18): 482 ng·h/mL | AUC(0-t) ([1]; 30 mg, 1442 - Part 2 (Fast, 30 mg), N 9): 480 ng·h/mL | AUC(0-t) ([1]; 60 mg, 1442 - Part 3 (D17 = 60 mg), N 9): 763 ng·h/mL | systemic exposure with high-fat meals ([1]; modified release tablet): significant increase | Abdominal pain upper, adverse event leading to treatment discontinuation ([2]; 20 mg BID): 2.1% | Abdominal pain upper, treatment-emergent adverse event ([2]; 20 mg BID): 2.1% | Diarrhea (incl. loose stool), adverse event leading to treatment discontinuation ([2]; 20 mg BID): 10.4% | Diarrhea (incl. loose stool), treatment-emergent adverse event ([2]; 20 mg BID): 37.5% | Dizziness, adverse event leading to treatment discontinuation ([2]; 20 mg BID): 2.1% | Dizziness, treatment-emergent adverse event ([2]; 20 mg BID): 6.3% | Headache, adverse event leading to treatment discontinuation ([2]; 20 mg BID): 2.1% | Headache, treatment-emergent adverse event ([2]; 20 mg BID): 12.5% | Nausea, adverse event leading to treatment discontinuation ([2]; 20 mg BID): 4.2% | Nausea, treatment-emergent adverse event ([2]; 20 mg BID): 22.9% | Vomiting, adverse event leading to treatment discontinuation ([2]; 20 mg BID): 0% | Vomiting, treatment-emergent adverse event ([2]; 20 mg BID): 6.3% | discontinuations due to adverse events ([2]; 20 mg BID): 21% | Abdominal pain upper, adverse event leading to treatment discontinuation ([2]; 30 mg BID): 2.0% | Abdominal pain upper, treatment-emergent adverse event ([2]; 30 mg BID): 6.0% | Diarrhea (incl. loose stool), adverse event leading to treatment discontinuation ([2]; 30 mg BID): 6.0% | Diarrhea (incl. loose stool), treatment-emergent adverse event ([2]; 30 mg BID): 48.0% | Dizziness, adverse event leading to treatment discontinuation ([2]; 30 mg BID): 2.0% | Dizziness, treatment-emergent adverse event ([2]; 30 mg BID): 14.0% | Headache, adverse event leading to treatment discontinuation ([2]; 30 mg BID): 4.0% | Headache, treatment-emergent adverse event ([2]; 30 mg BID): 26.6% | Nausea, adverse event leading to treatment discontinuation ([2]; 30 mg BID): 8.0% | Nausea, treatment-emergent adverse event ([2]; 30 mg BID): 38.0% | Vomiting, adverse event leading to treatment discontinuation ([2]; 30 mg BID): 2.0% | Vomiting, treatment-emergent adverse event ([2]; 30 mg BID): 8.0% | discontinuations due to adverse events ([2]; 30 mg BID): 20% | Abdominal pain upper, adverse event leading to treatment discontinuation ([2]; 40 mg BID): 7.5% | Abdominal pain upper, treatment-emergent adverse event ([2]; 40 mg BID): 11.3% | Diarrhea (incl. loose stool), adverse event leading to treatment discontinuation ([2]; 40 mg BID): 20.8% | Diarrhea (incl. loose stool), treatment-emergent adverse event ([2]; 40 mg BID): 45.3% | Dizziness, adverse event leading to treatment discontinuation ([2]; 40 mg BID): 1.9% | Dizziness, treatment-emergent adverse event ([2]; 40 mg BID): 15.1% | Headache, adverse event leading to treatment discontinuation ([2]; 40 mg BID): 3.8% | Headache, treatment-emergent adverse event ([2]; 40 mg BID): 20.8% | Nausea, adverse event leading to treatment discontinuation ([2]; 40 mg BID): 11.3% | Nausea, treatment-emergent adverse event ([2]; 40 mg BID): 41.5% | Vomiting, adverse event leading to treatment discontinuation ([2]; 40 mg BID): 5.7% | Vomiting, treatment-emergent adverse event ([2]; 40 mg BID): 13.2% | inhibition of CYP3A4 (CYP3A4): weak inhibitor | inhibition of PDE4B and PDE4D subtype splice variants [3]: potent inhibitor | production of tumour necrosis factor α (TNFα) in human whole blood and PBMC [4]: inhibited

Reference: patent US12409172B2, “Dosage regimen” (UNION therapeutics A/S, priority 2023, dated 2025)
